Where a name gives a salt, the structure may show the parent alone.

One data set deals with delayed hypersensitivity induced by picryl chloride. As to the kind of experiment: Reinforcement Test of Delayed Hypersensitivity (picryl chloride, pinna thickness). The data set is classed as in vivo, ICR male mice. The conditions noted are these: 50 mg per Kg orally, simultaneously with sensitization; 24 hours after challenging; average of both pinnae of eight mice; * P<0.05, ** P<0.01 vs control. The source says:
The delayed hypersensitivity induced on a mouse when picryl chloride(2-chloro-1,3,5-trinitrobenzene) is coated on the skin of the mouse is known as a typical cellular immunity.
The above test system was used for the reinforcement tests of the delayed hypersensitivity.
Groups of eight ICR male mice, each having a body weight of about 30 g, were used for the test.
Sensitization was effected by coating a 3% solution of picryl chloride in a 4/1 mixture of olive oil and acetone on the shaved abdomen of each of the mice.
Simultaneously with the sensitization, a solution or suspension of a compound of the present invention dissolved or suspended in a 0.2% solution of carboxymethylcellulose in a physiological saline was orally administered to the mouse at a dose of 50 mg per Kg of its body weight. To each mouse of a control group, a 0.2% carboxymethylcellulose solution was similarly administered in a physiological saline.
The delayed hypersensitivity was induced 7 days after the sensitization by pinching each of the pinnae of each mouse with a pair of forceps whose tip portions were wrapped with a felt impregnated with a 1% solution of picryl chloride in olive oil and coating the pinnae with the solution. The thickness of each pinna was measured before the challenging and 24 hours after the challenging and the ratio of increase of the thickness (average value of both of the pinnae of the eight mice) is shown in Table 1.
For comparison, a similar test was carried out using Levamisole hydrochloride.
F.t tests were carried out on the thus-obtained test results.
Regarding `c1ccc([C@H]2CN3CCSC3=N2)cc1` [Levamisole.HCl, Levamisole hydrochloride, reference compound], the “Ratio of Increase of Pinna Thickness” value amounted to 31.2%.
Consider `O=C(Nc1nc(-c2ccccc2)cs1)C(=O)Nc1nc(-c2ccccc2)cs1` [drawing 6], for which the “Ratio of Increase of Pinna Thickness” value stood at 30.3%.
Turning to `O=C(Nc1nc(-c2ccc(Cl)cc2)cs1)C(=O)Nc1nc(-c2ccc(Cl)cc2)cs1` [drawing 7], the “Ratio of Increase of Pinna Thickness” value worked out at 29.5%.
For `COc1ccc(-c2csc(NC(=O)C(=O)Nc3nc(-c4ccc(OC)cc4)cs3)n2)cc1` [drawing 8], the “Ratio of Increase of Pinna Thickness” value is 36.5%.
For `CSc1sc(NC(=O)C(=O)Nc2nc(-c3ccccc3)c(SC)s2)nc1-c1ccccc1` [drawing 9], the “Ratio of Increase of Pinna Thickness” value was 27.3%.
As to `CC(Cl)C(=O)Nc1nc(-c2ccccc2)cs1` (stereo not drawn) [drawing 10], the “Ratio of Increase of Pinna Thickness” value was found to be 36.1%.
As to `CC(Br)C(=O)Nc1nc(-c2ccccc2)cs1` (stereo not drawn) [drawing 11], the “Ratio of Increase of Pinna Thickness” value was 32.9%.

System in a further data set: not listed separately
As to the kind of experiment: Acute Toxicity Test through Oral Administration. The conditions noted are these: ddY male mice, 7 days observation. The data set is classed as in vivo. The source says: To each of a group of five ddY male mice, was orally administered a medicine dissolved or suspended in physiological saline.
In the case of `c1ccc([C@H]2CN3CCSC3=N2)cc1` [Levamisole.HCl, Levamisole hydrochloride, reference compound], the “estimated LD50” value was 200 to 300 mg/kg.

The test system of another data set is adjuvant arthritis. Kind of data set: Adjuvant Arthritis Test (Mycobacterium tuberculosis adjuvant). The data set is classed as in vivo, SD male rats. The following applies: 5 mg per Kg subcutaneously, 9 times in total; left hind leg; * P<0.05, ** P<0.01 vs control. The source says: The adjuvant arthritis in rats caused by the injection of a Mycobacterium tuberculosis adjuvant is often utilized for a model test of chronic rheumatoid arthritis in human.
The mechanism of manifestation of this disease has not completely been elucidated, but it is known that the cellular immunity plays an important role. The immuno-modulating activity of the compounds of the present invention was investigated in accordance with this known adjuvant arthritis test.
8-Week-old SD male rats were used for the test. In 0.1 ml of fluid paraffin, 0.4 mg of dry-dead cells of Mycobacterium tuberculosis were suspended, and the suspension was injected under the heel skin of the right hind leg of each rat. Each of the compounds of the present invention was subcutaneously administered 9 times in total before and after the injection of the adjuvant. Each of the compounds of the present invention was dissolved or suspended in a 0.2% solution of carboxymethylcellulose in physiological saline and administered to each rat at a dose of 5 mg per Kg of the body weight. The swollen volume of the left hind leg was measured during the period of from the day of injection to the day of completion of the test, and the swelling ratio was calculated. For comparison, a similar test was conducted using Levamisole hydrochloride. F.t tests were carried out on the test results obtained.
For `c1ccc([C@H]2CN3CCSC3=N2)cc1` [Levamisole.HCl, Levamisole hydrochloride, reference compound], the “Swell suppression ratio to control group (average value from 16th to 20th days)” value (from here on “Swell suppression ratio to control group”) is given as 19.8%.
`O=C(Nc1nc(-c2ccccc2)cs1)C(=O)Nc1nc(-c2ccccc2)cs1` [drawing 12]: the “Swell suppression ratio to control group” value was determined as 51.0%.
Turning to `O=C(Nc1nc(-c2ccc(Cl)cc2)cs1)C(=O)Nc1nc(-c2ccc(Cl)cc2)cs1` [drawing 13], the “Swell suppression ratio to control group” value is given as 51.9%.
Consider `COc1ccc(-c2csc(NC(=O)C(=O)Nc3nc(-c4ccc(OC)cc4)cs3)n2)cc1` [drawing 14], for which the “Swell suppression ratio to control group” value is reported as 14.1%.
The same measure, in the same setting: the figure for `CSc1sc(NC(=O)C(=O)Nc2nc(-c3ccccc3)c(SC)s2)nc1-c1ccccc1` [drawing 15] is 35.5%; for `CC(Cl)C(=O)Nc1nc(-c2ccccc2)cs1` (stereo not drawn) [drawing 16] it is 12.1%.
Take `CC(Br)C(=O)Nc1nc(-c2ccccc2)cs1` (stereo not drawn) [drawing 17]: the “Swell suppression ratio to control group” value amounted to 20.0%.

The record behind these values is patent publication US4501750A, “Thiazole compounds, a process for preparing same and a pharmaceutical composition containing the thiazole compounds” (Mitsui Toatsu Kaguku Kabushiki Kaisha, priority 1981, dated 1985).
